In patent US7553105B1, “Method and compositions for treatment of subsurface contaminants” (Colorado School of Mines, priority 2005, dated 2009):
≈ marks a conversion by molar mass, not a printed value. Where “and” joins values, the source holds several entries; their conditions need not be identical. Equal values may be shown once. Read-outs that look alike come from different tables or passages of the source. Marks after values point to notes of the source that are not given here.

How the values were obtained:
[1] = Batch screening for compatibility of surfactants/cosolvents with KMnO4; conditions: for effect of surfactant concentration on compatibility with permanganate: FIG. 1
Experimental: Seventy two surfactants were tested alone or in the presence of cosolvents to determine compatibility with KMnO4. Concentrations for each constituent corresponded to one of two remediation scenarios: (1) a relatively high wt-% of surfactants, i.e., 1-10 wt-%, is coupled with oxidants representative of conditions where a surfactant flush is conducted and followed by one or more water flushes, with high levels of surfactant remaining when the oxidant is introduced (note that this scenario could also represent co-injection of surfactant and oxidant); and (2) a relatively low wt-% of surfactant, i.e., 0.01-0.1 wt-%, is coupled with oxidants representative of conditions where a surfactant flush is conducted by water flush with low levels of surfactant remaining when the oxidant is introduced.
The two cases are representative of the range of possible concentrations that may be encountered during pre- and post-remedial agent flushing scenarios. […] Potassium permanganate concentrations of 500 mg/L to 5,000 mg/L were used in the screening tests, these concentrations being representative for both laboratory conditions and field applications.
Solutions containing surfactant alone, cosolvent alone, or mixtures of surfactant and cosolvent were used in the batch screening studies. Qualitative and quantitative criteria were used to define a compatible coupling. For example, a bright purple color provides a visual qualitative assessment regarding oxidant consumption, therefore solutions that remained bright purple with relatively few manganese dioxide solids generated throughout the 24-hour reaction period were deemed compatible.
The batch screening samples were prepared in 40 ml type A borosilicate glass vials with Teflon®-lined septa. The desired surfactant concentration (corrected for active weight percent) was weighed and dispensed into each sample vial. Thirty milliliters of a 5,000 mg/L KMnO4 solution prepared with de-ionized water was dispensed into each vial. If cosolvent was present, the desired weight percent was added to the vial on a vol/vol basis. The total sample volume was 30-ml, leaving 10-ml of headspace in the event of gas or foam generation. The vials were shaken until the solutions were well mixed.
Visual observation on each vial was made at three, twenty-four and forty-eight hours. The amount of oxidant remaining in the surfactant, or surfactant/cosolvent, solution was determined with a Hach DR/4000 Ultraviolet Spectrophotometer (UV Spec.). A 0.1 ml aliquot of sample was filtered with a 10-micron filter and dispensed into a 10-ml vial, followed by addition of 9.9 mLs of de-ionized water. The resultant solution has a permanganate dilution of less than 50 mg/L (ideal absorbance measurement range). Samples were analyzed at 525 nm for KMnO4 with final concentrations derived from a 6-point standard calibration curve.

[2] = 25° C.; cited from earlier work
[3] = maximum contaminant level, USEPA; cited from earlier work
[4] = Batch surfactant sorption experiments; type: physicochemical; conditions: medium-grained laboratory sand
Description: Adsorption isotherms of ionic surfactants onto charged sites are typically approximated using a Langmuir model (Rosen, 1989).

[5] = vendor data, cited from earlier work
[6] = literature; cited from earlier work
[7] = Density of 3.5 wt % Dowfax 8390 solution; conditions: 3.5 wt % solution, 23° C., average of five measurements
[8] = Interfacial tension, DuNuoy ring tensiometer; conditions: 3.5 wt % Dowfax 8390 solution equilibrated with PCE, average of five measurements
[9] = Example 3 batch compatibility of cosolvents and surfactants with permanganate; conditions: 5,000 mg/L KMnO4; 24-48 hr observation
Experimental: Batch studies were performed to evaluate the compatibility of alcohol cosolvents and surfactants for use with oxidants during treatment of DNAPLs.

[10] = Solubility of PCE in surfactants, co-surfactants and electrolytes versus water alone; type: physicochemical
Experimental: Co-surfactants and electrolytes serve to further enhance the solubilization capacity of any given surfactant.
Therefore use of equilibrium values in the prediction of surfactant enhanced remediation performance may result in the underestimation of remediation times and costs.
PCE concentrations were determined using a Hewlett-Packard gas chromatograph (GC) equipped with auto-ampler and electron capture detector (ECD).

[11] = Solubility in water 20° C.; type: physicochemical; conditions: measured for this study
[12] = 3-hour observation, 3.5 wt % surfactant + 5000 mg/L KMnO4
[13] = 24-hour observation, 3.5 wt % surfactant + 5000 mg/L KMnO4
[14] = MnO4^− loss, 3-hour observation, 3.5 wt % surfactant + 5000 mg/L KMnO4
[15] = MnO4^− loss, 24-hour observation, 3.5 wt % surfactant + 5000 mg/L KMnO4

CCCCCCCCCCCCc1ccc(S(=O)(=O)O)cc1 [SDBS]
Average MnO4^− [1, 12]: 3442 mg/L
Average MnO4^− [1, 13]: 1896 mg/L
% mass loss [1, 14]: 29%
% mass loss [1, 15]: 61%

(C16 linear) Sodium diphenyl oxide sulfonate [Calfax 16L-35]
Average MnO4^− [1, 12]: 4340 mg/L
Average MnO4^− [1, 13]: 4183 mg/L
% mass loss [1, 14]: 14%
% mass loss [1, 15]: 15%

Cc1ccc(C)cc1 [p-Xylene]
Solubility in water [2]: 210 µg/mL (≈ 1980 µM)
MCL [3]: 10 mg/L

Clc1ccccc1 [Chlorobenzene]
Solubility in water [2]: 472 µg/mL (≈ 4190 µM)

CCCCCCCC/C=C\CCCCCCCC(=O)OCCOCC(OCCO)C1OCC(OCCO)C1OCCO (centres unmarked) [Tween 80, polyoxyethylene (20) sorbitan monooleate]
effect of surfactant concentration on compatibility with permanganate [1]: only compatible at low residual levels with permanganate
% mass loss [1, 14]: 100%
% mass loss [1, 15]: 100%

c1ccccc1 [Benzene]
MCL [3]: 0.005 mg/L

CCCCCCCCCC [n-Decane]
Solubility in water [2]: 0.053 µg/mL (≈ 0.372 µM)

CCCCCCCC [n-Octane]
Solubility in water [2]: 0.72 µg/mL (≈ 6.3 µM)

ClC=C(Cl)Cl [Trichloroethene, trichloroethene]
MCL [3]: 0.005 mg/L

CCc1ccccc1 [Ethylbenzene]
Solubility in water [2]: 152 µg/mL (≈ 1430 µM)
MCL [3]: 0.7 mg/L

c1ccc2c(c1)ccc1ccccc12 [Phenanthrene (PAH), Phenanthrene]
Solubility in water [2]: 6.2 µg/mL (≈ 34.8 µM)
MCL [3]: 0.0002 mg/L

Clc1cc2c(cc1Cl)Oc1cc(Cl)c(Cl)cc1O2 [Dioxin (2,3,7,8-TCDD), 2,3,7,8-TCDD]
Solubility in water [2]: 1.9e-09 µg/mL (≈ 5.9e-09 µM)
MCL [3]: 3e-08 mg/L

Sodium hexadecyl diphenyl oxide disulfonate [Dowfax 8390]
sorption to laboratory sand [4]: negligible
CMC ([5]; critical micelle concentration): 140 mg/L
HLB [5]: 78.6
sorption to aquifer materials [6]: low sorption to aquifer materials
Density [7]: 1.007^c g/cm^3
Interfacial Tension [8]: 8.5^c dyne/cm
compatibility with permanganate [1]: compatible with permanganate
Average MnO4^− [1, 12]: 4458 mg/L
Average MnO4^− [1, 13]: 3980 mg/L
effect of surfactant concentration on compatibility with permanganate [1]: not dependent on surfactant concentration
% mass loss [1, 14]: 10%
% mass loss [1, 15]: 23%
Relative Amount of MnO2 Solids Generated [9]: Few
Solution Color [9]: Dark

c1ccc2ccccc2c1 [Napthalene (PAH), Napthalene]
Solubility in water [2]: 33 µg/mL (≈ 257 µM)
MCL [3]: 0.0002 mg/L

Cc1ccccc1C [o-Xylene]
Solubility in water [2]: 175 µg/mL (≈ 1650 µM)

Cl[C@H]1[C@H](Cl)[C@@H](Cl)[C@@H](Cl)[C@H](Cl)[C@H]1Cl [Lindane (herbicide), Lindane]
Solubility in water [2]: 7.3 µg/mL (≈ 25.1 µM)

CC(C)(C)O [tert-butanol]
% mass loss [1]: 2% and 4%
Average MnO4^− [1]: 5075 mg/L and 4986 mg/L
Relative Amount of MnO2 Solids Generated [9]: None
Solution Color [9]: Dark

CC(C)=O [Acetone]
% mass loss [1]: 98%

ClC(Cl)=C(Cl)Cl [PCE, tetrachloroethene]
5% Dowfax + 3% AOT: PCE ([10]; in 5% Dowfax + 3% AOT): 31,954 mg/L
5% Dowfax + 3% AOT + 3% NaBr: PCE ([10]; in 5% Dowfax + 3% AOT + 3% NaBr): 107,284 mg/L
5% SDS + 3% AOT: PCE ([10]; in 5% SDS + 3% AOT): 21,410 mg/L
5% SDS + 3% AOT + 3% NaBr: PCE ([10]; in 5% SDS + 3% AOT + 3% NaBr): 62,700 mg/L
PCE in water only ([10]; water only): 200 mg/L
solubility [11]: 250 µg/mL (≈ 1510 µM)
MCL [3]: 0.005 mg/L

CCCCCCCCCCCCOS(=O)(=O)[O-].[Na+] [SDS, sodium dodecyl sulfate]
compatibility with permanganate [1]: compatible with permanganate
Average MnO4^− [1, 12]: 4523 mg/L
Average MnO4^− [1, 13]: 4393 mg/L
% mass loss [1, 14]: 6%
% mass loss [1, 15]: 20%
